US8586600B2, “Heterocyclic compounds and uses thereof” (Celgene Avilomics Research, Inc., priority 2007, dated 2013)
Like-named read-outs stand apart in the source and are kept apart here. Values belong to the molecule of their own block, whether it stands above or below them.

Experiments:
[1] = target: T1, c-KIT (V654A) (Homo sapiens (Human), UniProt P10721, V654A); experiment: c-Kit (V654A) Omnia assay for potency assessment (Method E); type: biochemical; details: [ATP]=220 μM, read-out: Mutant c-KIT (V654A) IC50 Apparent
T1 sequence (P10721 26-976 V654A): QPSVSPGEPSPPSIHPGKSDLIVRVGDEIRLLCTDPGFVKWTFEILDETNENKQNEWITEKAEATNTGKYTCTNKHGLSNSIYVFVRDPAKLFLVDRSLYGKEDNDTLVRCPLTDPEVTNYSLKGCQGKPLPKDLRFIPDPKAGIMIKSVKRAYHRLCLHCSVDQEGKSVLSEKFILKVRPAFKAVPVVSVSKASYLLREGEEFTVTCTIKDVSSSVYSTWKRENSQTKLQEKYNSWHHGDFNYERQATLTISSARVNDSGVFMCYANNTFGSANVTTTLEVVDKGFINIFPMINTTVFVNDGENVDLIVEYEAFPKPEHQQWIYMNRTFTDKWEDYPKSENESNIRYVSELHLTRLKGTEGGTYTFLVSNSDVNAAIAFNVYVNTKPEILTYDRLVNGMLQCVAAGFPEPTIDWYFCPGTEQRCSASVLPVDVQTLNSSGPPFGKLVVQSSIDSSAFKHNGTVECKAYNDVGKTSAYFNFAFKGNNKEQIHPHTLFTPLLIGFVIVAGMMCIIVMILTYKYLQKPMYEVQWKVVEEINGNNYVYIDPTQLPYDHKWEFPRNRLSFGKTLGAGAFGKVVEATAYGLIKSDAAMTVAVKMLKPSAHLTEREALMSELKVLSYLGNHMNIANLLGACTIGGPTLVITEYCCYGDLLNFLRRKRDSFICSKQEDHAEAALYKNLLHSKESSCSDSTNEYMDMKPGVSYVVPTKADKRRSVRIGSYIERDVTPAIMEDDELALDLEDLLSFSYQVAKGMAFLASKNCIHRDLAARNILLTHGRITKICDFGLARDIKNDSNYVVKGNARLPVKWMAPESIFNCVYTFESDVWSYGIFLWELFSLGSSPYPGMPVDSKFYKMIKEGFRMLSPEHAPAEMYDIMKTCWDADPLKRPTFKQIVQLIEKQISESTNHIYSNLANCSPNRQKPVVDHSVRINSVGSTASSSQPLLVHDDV
Protocol: (§1) Kinase reactions were started with the addition of 45 μL of the Y9 or Y12-Sox peptide substrate and monitored every 30-90 seconds for 60 minutes at λex360/λem485 in a Synergy^4 plate reader from BioTek (Winooski, Vt.).

[2] = target: PDGFR-α (Homo sapiens (Human), UniProt P16234); experiment: PDGFR inhibition assay Method B (Z'-LYTE biochemical assay); details: compound at 1 μM
Chain of PDGFR-α (P16234 24-1089): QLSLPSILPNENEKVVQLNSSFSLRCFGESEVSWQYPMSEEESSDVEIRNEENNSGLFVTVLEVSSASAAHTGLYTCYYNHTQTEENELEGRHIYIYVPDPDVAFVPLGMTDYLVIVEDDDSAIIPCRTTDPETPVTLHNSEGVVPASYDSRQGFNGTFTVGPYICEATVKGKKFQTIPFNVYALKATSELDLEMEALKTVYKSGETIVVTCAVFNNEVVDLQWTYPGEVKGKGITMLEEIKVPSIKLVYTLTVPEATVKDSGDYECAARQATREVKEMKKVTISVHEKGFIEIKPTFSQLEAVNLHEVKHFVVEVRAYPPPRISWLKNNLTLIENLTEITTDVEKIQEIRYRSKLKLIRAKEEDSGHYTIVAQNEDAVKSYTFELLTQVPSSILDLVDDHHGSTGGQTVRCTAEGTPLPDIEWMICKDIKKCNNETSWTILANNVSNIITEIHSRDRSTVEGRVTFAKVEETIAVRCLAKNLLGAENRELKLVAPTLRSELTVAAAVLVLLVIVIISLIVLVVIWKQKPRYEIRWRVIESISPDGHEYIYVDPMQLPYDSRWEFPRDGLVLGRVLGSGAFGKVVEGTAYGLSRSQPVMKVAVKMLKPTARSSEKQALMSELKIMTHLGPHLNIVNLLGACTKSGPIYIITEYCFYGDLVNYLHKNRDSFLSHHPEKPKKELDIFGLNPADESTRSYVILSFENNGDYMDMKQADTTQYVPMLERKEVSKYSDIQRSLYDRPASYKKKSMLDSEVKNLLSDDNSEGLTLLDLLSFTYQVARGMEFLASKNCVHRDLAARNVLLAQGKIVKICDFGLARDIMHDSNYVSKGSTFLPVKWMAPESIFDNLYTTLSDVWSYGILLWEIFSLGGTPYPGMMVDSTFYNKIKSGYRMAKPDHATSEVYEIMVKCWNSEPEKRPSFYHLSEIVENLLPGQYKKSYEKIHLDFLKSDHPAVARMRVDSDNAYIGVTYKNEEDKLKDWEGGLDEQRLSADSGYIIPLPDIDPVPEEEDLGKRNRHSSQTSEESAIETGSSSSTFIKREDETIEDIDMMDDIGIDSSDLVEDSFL
From the text: The Z'-LYTE™ biochemical assay employs a fluorescence-based, coupled-enzyme format and is based on the differential sensitivity of phosphorylated and non-phosphorylated peptides to proteolytic cleavage.

[3] = target: T2, c-KIT kinase (Homo sapiens (Human), UniProt P10721); experiment: cKit inhibition assay Method C (electrophoretic mobility shift); type: biochemical; details: read-out: c-KIT % Inhibition
T2 sequence (P10721 26-976): as the sequence (P10721 26-976 V654A) above, with A629V counted along it
Protocol: The reaction was started by adding the ATP and incubating for 1 hour at room temperature. […] Phosphorylated and unphosphorylated substrate was separated by charge using electrophoretic mobility shift. Product formed was compared to control wells to determine inhibition or enhancement of enzyme activity.

[4] = target: T1, c-KIT (V654A); experiment: c-Kit (V654A) Omnia assay with pre-activated enzyme (Method D); type: biochemical; details: [ATP]=100 μM, read-out: Mutant c-KIT (V654A) IC50
Protocol: as §1, with “10× enzyme/ATP stocks were pre-incubated for 30 min at room temperature to pre-activate each enzyme prior to compound exposure. […] Kinase” for “Kinase”

[5] = target: c-KIT (T670I) (Homo sapiens (Human), UniProt P10721, T670I); experiment: c-Kit (T670I) Omnia assay for potency assessment (Method E); type: biochemical; details: [ATP]=220 μM, read-out: Mutant c-KIT (T670I) IC50 Apparent
Chain of c-KIT (T670I) (P10721 26-976 T670I): as the sequence (P10721 26-976 V654A) above, with A629V, T645I counted along it
Protocol: as §1

[6] = target: T2, c-KIT kinase; experiment: c-KIT mass spectral analysis of tryptic digest (MALDI-TOF); type: binding; details: 3 hours incubation at 10× excess of compound
Protocol: Iodoacetamide was used as the alkylating agent after compound incubation. […] For tryptic digests a 5 μl aliquot (14 pmols) was diluted with 10 ul of 0.1% TFA prior to micro C18 Zip Tipping directly onto the MALDI target using alpha cyano-4-hydroxy cinnamic acid as the matrix (5 mg/ml in 0.1% TFA:acetonitrile 50:50).
The tryptic digest was analyzed by mass spectrometer (MALDI-TOF).

SMILES: C=CC(=O)Nc1ccc(C(=O)Nc2ccc(C)c(Nc3nccc(-c4cccnc4)n3)c2)cc1C(F)(F)F [II-2]
IC50 [1]: 83 nM

SMILES: Cc1ccc(NC(=O)c2ccc(CN3C(=O)C=CC3=O)cc2)cc1Nc1nccc(-c2cccnc2)n1 [II-8, 4-(2,5-Dioxo-2,5-dihydropyrrol-1-ylmethyl)-N-[4-methyl-3-(4-pyridin-3-yl-pyrimidin-2-ylamino)-phenyl]benzamide]
inhibition at 1 µM ([3]; compound at 1 μM, 300 μM ATP): 78%

SMILES: Cc1ccc(NC(=O)c2ccc(NC(=O)COC(=O)c3c(Cl)cccc3Cl)cc2)cc1Nc1nccc(-c2cccnc2)n1 [II-26]
inhibition at 1 µM ([3]; compound at 1 μM, 300 μM ATP): 94%

SMILES: Cc1ccc(NC(=O)c2ccc(NS(=O)(=O)c3cnccc3Cl)cc2)cc1Nc1nccc(-c2cccnc2)n1 [II-40]
IC50 [4]: 10 µM

SMILES: Cc1ccc(NC(=O)c2ccc(NS(=O)(=O)c3ccc(Cl)nc3)cc2)cc1Nc1nccc(-c2cccnc2)n1 [II-41]
IC50 [1]: 173 nM

SMILES: Cc1ccc(C(=O)Nc2ccc(NC(=O)CCl)c(C(F)(F)F)c2)cc1Nc1nccc(-c2cccnc2)n1 [III-14]
covalent modification of c-KIT (mass spectral analysis) [6]: covalently bound to c-KIT protein at two target cystein residues: Cys808 (minor) and Cys788 (major)

Next, values leading:

inhibition at 1 µM [2]: 28%
SMILES: C/C=C/C(=O)Nc1ccc(C(=O)Nc2ccc(C)c(Nc3nccc(-c4cccnc4)n3)c2)cc1 [II-4]

inhibition at 1 µM ([3]; compound at 1 μM, 300 μM ATP): 66%
SMILES: Cc1ccc(NC(=O)c2ccc(NC(=O)/C=C/CN(C)C)cc2)cc1Nc1nccc(-c2cccnc2)n1 [II-5]

inhibition at 1 µM ([3]; compound at 1 μM, 300 μM ATP): 91%
SMILES: C=CC(=O)NCc1ccc(C(=O)Nc2ccc(C)c(Nc3nccc(-c4cccnc4)n3)c2)cc1 [II-6, 4-(Acryloylaminomethyl)-N-[4-methyl-3-(4-pyridin-3-ylpyrimidin-2-ylamino)phenyl]benzamide]

inhibition at 1 µM [3]: 95%
SMILES: C=CC(=O)Nc1ccc2cc(C(=O)Nc3ccc(C)c(Nc4nccc(-c5cccnc5)n4)c3)ccc2c1 [II-44, 6-Acryloylaminonaphthalene-2-carboxylic acid[4-methyl-3-(4-pyridin-3-ylpyrimidin-2-ylamino)phenyl]amide]

IC50 [1]: 260 nM
IC50 [4]: 0.937 µM
SMILES: Cc1ccc(NC(=O)c2ccc(NC(=O)CCl)cc2)cc1Nc1nccc(-c2cccnc2)n1 [II-53]

IC50 [4]: 10 µM
SMILES: Cc1ccc(NC(=O)c2ccc(NC(=O)C(C)Cl)cc2)cc1Nc1nccc(-c2cccnc2)n1 (centres unmarked) [II-54]

IC50 [4]: 9.15 µM
SMILES: Cc1ccc(NC(=O)c2ccc(NC(=O)/C=C/CN(C)C)c(C(F)(F)F)c2)cc1Nc1nccc(-c2cccnc2)n1 [II-55]

IC50 [1]: 216 nM
IC50 [5]: 1570 nM
IC50 [4]: 3.99 µM
SMILES: Cc1ccc(C(=O)Nc2ccc(NC(=O)/C=C/CN(C)C)c(C(F)(F)F)c2)cc1Nc1nccc(-c2cccnc2)n1 [III-6]
